From patent publication US12084444B2, “Spiro-lactam NMDA modulators and methods of using same” (Tenacia Biotechnology (Hong Kong) Co., Limited, priority 2016, dated 2024)

Legend:
Format in all cases: biochemical
[1] = molecular target: T1, NMDAR2A expressing HEK cell membranes (Homo sapiens, UniProt Q05586+Q12879); assay: NMDAR agonist assay, [3H]MK-801 binding, NMDAR2A; set-up: key to NMDAR2A B: log EC50: 0=−; ≥1×10^−9 M (e.g., −8)=+; <1×10^−9 M (e.g., −10)=++; details: 50 μM glutamate; for Emax: 0.25 h, read-out: NMDAR2A A: % maximal [3H]MK-801 binding relative to 1 mM glycine; for EC50: read-out: NMDAR2A B: log EC50 (converted)
T1 construct: expressed in transfected cells; host or cells: HEK cells (membrane extract)
Experimental: (§1) Assays were conducted as described by Moskal et al., “GLYX-13: a monoclonal antibody-derived peptide that acts as an N-methyl-D-aspartate receptor modulator,” Neuropharmacology, 49, 1077-87, 2005. These studies were designed to determine if the test compounds act to facilitate NMDAR activation in NMDAR2A, NMDAR2B, NMDAR2C or NMDAR2D expressing HEK cell membranes as measured by increases in [^3H]MK-801 binding.
(§2) In the assay, 300 μg of NMDAR expressing HEK cell membrane extract protein was preincubated for 15 minutes at 25° C. in the presence of saturating concentrations of glutamate (50 μM) and varying concentrations of test compound (1×10^−15 M-1×10^−7 M), or 1 mM glycine. Following the addition of 0.3 μCi of [^3H]MK-801 (22.5 Ci/mmol), reactions were again incubated for 15 minutes at 25° C. (nonequilibrium conditions). Bound and free [^3H]MK-801 were separated via rapid filtration using a Brandel apparatus.
(§3) In analyzing the data, the DPM (disintegrations per minute) of [^3H]MK-801 remaining on the filter were measured for each concentration of test compound or for 1 mM glycine. The DPM values for each concentration of a ligand (N=2) were averaged. The baseline value was determined from the best fit curve of the DPM values modeled using the GraphPad program and the log(agonist) vs. response(three parameters) algorithm was then subtracted from all points in the dataset. The % maximal [^3H]MK-801 binding was then calculated relative to that of 1 mM glycine: all baseline subtracted DPM values were divided by the average value for 1 mM glycine. The EC50 and % maximal activity were then obtained from the best fit curve of the % maximal [^3H]MK-801 binding data modelled using the GraphPad program and the log(agonist) vs. response(three parameters) algorithm.
(§4) The tables below summarize the results for the wild type NMDAR agonists NMDAR2A, NMDAR2B, NMDAR2C, and NMDAR2D, and whether the compound is not an agonist (−), is an agonist (+), or is a strong agonist (++), where column A is based on the % maximal [^3H]MK-801 binding relative to 1 mM glycine (−=0; <100%=+; and >100%=++); and column B is based on log EC50 values (0=−; ≥1×10^−9 M (e.g., −8)=+; and <1×10^−9 M (e.g., −10)=++).

[2] = molecular target: T2, NMDAR2A expressing HEK cell membranes (Homo sapiens, UniProt Q12879); assay: NMDAR agonist assay, [3H]MK-801 binding, NMDAR2A; set-up: key to NMDAR2A B: log EC50: 0=−; ≥1×10^−9 M (e.g., −8)=+; <1×10^−9 M (e.g., −10)=++; details: 50 μM glutamate
T2 construct: expressed in transfected cells; host or cells: HEK cells (membrane extract)
Experimental: as §1, §2, §3, §4

[3] = molecular target: T3, NMDAR2B expressing HEK cell membranes (Homo sapiens, UniProt Q05586+Q13224); assay: NMDAR agonist assay, [3H]MK-801 binding, NMDAR2B; set-up: key to NMDAR2B B: log EC50: 0=−; ≥1×10^−9 M (e.g., −8)=+; <1×10^−9 M (e.g., −10)=++; details: 50 μM glutamate; for EC50: read-out: NMDAR2B B: log EC50 (converted); for Emax: 0.25 h, read-out: NMDAR2B A: % maximal [3H]MK-801 binding relative to 1 mM glycine
T3 construct: expressed in transfected cells; host or cells: HEK cells (membrane extract)
Experimental: as §1, §2, §3, §4

[4] = molecular target: T4, NMDAR2B expressing HEK cell membranes (Homo sapiens, UniProt Q13224); assay: NMDAR agonist assay, [3H]MK-801 binding, NMDAR2B; set-up: key to NMDAR2B B: log EC50: 0=−; ≥1×10^−9 M (e.g., −8)=+; <1×10^−9 M (e.g., −10)=++; details: 50 μM glutamate
T4 construct: expressed in transfected cells; host or cells: HEK cells (membrane extract)
Experimental: as §1, §2, §3, §4

T1 sequence (Q12879 23-1464, other chains not shown): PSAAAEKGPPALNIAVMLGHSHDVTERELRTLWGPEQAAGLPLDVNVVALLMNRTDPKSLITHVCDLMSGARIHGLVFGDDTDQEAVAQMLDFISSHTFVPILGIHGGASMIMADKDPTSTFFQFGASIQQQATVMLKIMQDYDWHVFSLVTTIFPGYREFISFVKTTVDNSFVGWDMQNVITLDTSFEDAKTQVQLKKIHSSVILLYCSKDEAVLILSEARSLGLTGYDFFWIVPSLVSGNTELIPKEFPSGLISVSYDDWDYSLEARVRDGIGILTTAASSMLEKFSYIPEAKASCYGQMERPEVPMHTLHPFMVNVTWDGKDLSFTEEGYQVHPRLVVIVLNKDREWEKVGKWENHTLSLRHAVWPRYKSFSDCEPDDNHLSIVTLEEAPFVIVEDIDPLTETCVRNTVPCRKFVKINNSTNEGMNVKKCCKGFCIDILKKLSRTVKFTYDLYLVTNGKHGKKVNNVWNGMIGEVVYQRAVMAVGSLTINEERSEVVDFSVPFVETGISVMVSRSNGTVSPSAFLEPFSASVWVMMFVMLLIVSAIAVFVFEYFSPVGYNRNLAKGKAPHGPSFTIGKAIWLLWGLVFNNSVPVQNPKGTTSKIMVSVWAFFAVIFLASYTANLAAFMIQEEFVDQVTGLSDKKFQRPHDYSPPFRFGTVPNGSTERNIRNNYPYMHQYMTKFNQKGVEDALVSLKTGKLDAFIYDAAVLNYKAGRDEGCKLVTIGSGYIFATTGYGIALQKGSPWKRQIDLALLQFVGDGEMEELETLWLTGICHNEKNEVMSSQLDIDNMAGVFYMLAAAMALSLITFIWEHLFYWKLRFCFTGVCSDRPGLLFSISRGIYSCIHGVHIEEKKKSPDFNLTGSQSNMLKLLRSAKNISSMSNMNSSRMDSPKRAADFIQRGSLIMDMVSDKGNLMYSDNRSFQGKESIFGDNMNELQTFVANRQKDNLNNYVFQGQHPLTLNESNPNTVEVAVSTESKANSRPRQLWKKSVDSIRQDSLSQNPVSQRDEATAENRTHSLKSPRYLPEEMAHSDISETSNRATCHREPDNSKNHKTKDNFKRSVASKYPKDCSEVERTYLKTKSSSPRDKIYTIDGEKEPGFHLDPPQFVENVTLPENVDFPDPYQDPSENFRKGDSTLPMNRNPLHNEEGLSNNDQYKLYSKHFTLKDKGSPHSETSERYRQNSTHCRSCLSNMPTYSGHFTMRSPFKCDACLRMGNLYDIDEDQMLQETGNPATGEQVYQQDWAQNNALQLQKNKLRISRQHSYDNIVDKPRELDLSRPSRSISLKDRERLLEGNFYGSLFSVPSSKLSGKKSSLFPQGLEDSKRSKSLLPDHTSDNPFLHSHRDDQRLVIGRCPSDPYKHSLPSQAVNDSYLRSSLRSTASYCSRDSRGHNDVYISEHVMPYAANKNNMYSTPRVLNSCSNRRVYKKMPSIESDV
T2 sequence (Q12879 23-1464, other chains not shown): as above
T3 sequence (Q13224 27-1484, other chains not shown): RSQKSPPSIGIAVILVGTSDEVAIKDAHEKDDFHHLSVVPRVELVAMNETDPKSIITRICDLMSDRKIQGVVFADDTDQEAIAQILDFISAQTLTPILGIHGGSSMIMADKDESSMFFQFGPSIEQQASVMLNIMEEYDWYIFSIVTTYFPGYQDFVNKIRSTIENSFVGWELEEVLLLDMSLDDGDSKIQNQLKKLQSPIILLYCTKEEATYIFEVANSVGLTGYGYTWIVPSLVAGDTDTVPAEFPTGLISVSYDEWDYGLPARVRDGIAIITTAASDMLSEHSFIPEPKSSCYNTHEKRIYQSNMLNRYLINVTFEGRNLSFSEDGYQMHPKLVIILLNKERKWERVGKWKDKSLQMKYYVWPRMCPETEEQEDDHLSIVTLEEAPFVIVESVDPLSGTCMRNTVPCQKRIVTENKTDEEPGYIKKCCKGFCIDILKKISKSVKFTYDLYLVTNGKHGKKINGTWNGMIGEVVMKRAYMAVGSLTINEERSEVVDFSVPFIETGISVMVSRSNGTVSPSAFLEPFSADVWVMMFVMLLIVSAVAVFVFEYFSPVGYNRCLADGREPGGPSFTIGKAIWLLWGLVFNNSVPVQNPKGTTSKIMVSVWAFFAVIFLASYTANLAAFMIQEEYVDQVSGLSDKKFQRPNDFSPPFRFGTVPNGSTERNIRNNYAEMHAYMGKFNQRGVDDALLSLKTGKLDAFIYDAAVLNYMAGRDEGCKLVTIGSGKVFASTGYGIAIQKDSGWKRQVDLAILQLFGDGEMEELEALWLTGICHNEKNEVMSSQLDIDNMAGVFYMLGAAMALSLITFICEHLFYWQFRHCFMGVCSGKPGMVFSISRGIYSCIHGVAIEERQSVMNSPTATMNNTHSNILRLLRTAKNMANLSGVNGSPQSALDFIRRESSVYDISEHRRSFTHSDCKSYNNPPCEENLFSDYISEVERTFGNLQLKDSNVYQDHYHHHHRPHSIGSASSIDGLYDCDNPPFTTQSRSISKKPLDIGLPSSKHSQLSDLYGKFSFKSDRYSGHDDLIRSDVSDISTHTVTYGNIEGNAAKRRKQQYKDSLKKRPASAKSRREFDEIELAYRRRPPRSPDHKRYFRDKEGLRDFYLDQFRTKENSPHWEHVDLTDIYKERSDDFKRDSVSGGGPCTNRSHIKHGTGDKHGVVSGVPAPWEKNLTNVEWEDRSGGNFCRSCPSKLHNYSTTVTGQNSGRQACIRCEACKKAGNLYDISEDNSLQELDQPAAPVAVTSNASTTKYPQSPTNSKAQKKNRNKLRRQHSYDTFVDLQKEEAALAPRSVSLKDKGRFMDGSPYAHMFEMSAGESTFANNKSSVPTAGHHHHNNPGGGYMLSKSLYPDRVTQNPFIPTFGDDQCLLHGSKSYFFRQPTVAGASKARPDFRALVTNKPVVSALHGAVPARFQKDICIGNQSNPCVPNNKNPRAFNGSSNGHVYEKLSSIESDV

SMILES | Emax [1] [%] | NMDAR2A B: log EC50 [2] | EC50 [3] [nM] | Emax [3] [%] | EC50 [1] [nM] | NMDAR2B A: % maximal [3H]MK-801 binding relative to 1 mM glycine [4] | NMDAR2B B: log EC50 [4] | NMDAR2A A: % maximal [3H]MK-801 binding relative to 1 mM glycine [2]
CC1CC(=O)N(c2ccc(F)cc2)C12CN(Cc1ccccc1)C2=O (single isomer, unassigned) [BX, 2-benzyl-5-(4-fluorophenyl)-8-methyl-2,5-diazaspiro[3.4]octane-1,6-dione] | 0 | − | < 1 | < 100 |  |  |  | 
CC1CC(=O)N(c2ccc(F)cc2)C12CN(CC(N)=O)C2=O (single isomer, unassigned) [CF, 2-(5-(4-fluorophenyl)-8-methyl-1,6-dioxo-2,5-diazaspiro[3.4]octan-2-yl)acetamide] | 0 | − | < 1 | < 100 |  |  |  | 
CC1C(N)C(=O)N(C)C12CN(Cc1ccccc1)C2=O (single isomer, unassigned) [CG, 7-amino-2-benzyl-5,8-dimethyl-2,5-diazaspiro[3.4]octane-1,6-dione] | 0 | − | < 1 | < 100 |  |  |  | 
COc1ccc(CN2CC3(CCNC(=S)C3)C2=O)cc1 (single isomer, unassigned) [CN, 2-(4-methoxybenzyl)-6-thioxo-2,7-diazaspiro[3.5]nonan-1-one] | < 100 |  | < 1 | < 100 | < 1 |  |  | 
COc1ccc(CN2CC3(CCNC(=S)C3)C2=S)cc1 (single isomer, unassigned) [CO, 2-(4-methoxybenzyl)-2,7-diazaspiro[3.5]nonane-1,6-dithione] | < 100 |  |  |  | < 1 | − (−=0) | − | 
O=C1CC2(CCN1)CN(Cc1ccccc1)C2=O (single isomer, unassigned) [CU, 2-benzyl-2,7-diazaspiro[3.5]nonane-1,6-dione] |  | − | < 1 | < 100 |  |  |  | − (−=0)
CN1CCC2(CC1=O)CN(Cc1ccccc1)C2=O (single isomer, unassigned) [CW, 2-benzyl-7-methyl-2,7-diazaspiro[3.5]nonane-1,6-dione] | < 100 |  | < 1 | > 100 | < 1 |  |  | 
CCN1CCC2(CC1=O)CN(Cc1ccccc1)C2=O (single isomer, unassigned) [CZ, 2-benzyl-7-ethyl-2,7-diazaspiro[3.5]nonane-1,6-dione] |  |  |  |  | ≥ 1 |  | − | 
CNC(=O)[C@H]([C@@H](C)O)N1CC2(CCNC(=O)C2)C1=O (single isomer, unassigned) [DB] | 0 | − | < 1 | > 100 |  |  |  | 
NC(=O)CN1CC2(CCNC(=O)C2)C1=O (single isomer, unassigned) [DC, 2-(1,6-dioxo-2,7-diazaspiro[3.5]nonan-2-yl)acetamide] |  |  | < 1 | < 100 | < 1 |  |  | + (<100%=+)
CC(C)CN1CC2(CCNC(=O)C2)C1=O (single isomer, unassigned) [DE, 2-isobutyl-2,7-diazaspiro[3.5]nonane-1,6-dione] | < 100 |  | < 1 | < 100 | < 1 |  |  | 
CN1CC2(CCNC(=O)C2)C1=O (single isomer, unassigned) [DG, 2-methyl-2,7-diazaspiro[3.5]nonane-1,6-dione] | < 100 |  |  |  | < 1 | − (−=0) | − | 
CC1CC(=O)N(C)C12CN(CC(N)=O)C2=O (single isomer, unassigned) [DI, 2-(5,8-dimethyl-1,6-dioxo-2,5-diazaspiro[3.4]octan-2-yl)acetamide] |  |  | < 1 | < 100 | < 1 |  |  | + (<100%=+)
CC1C(O)C(=O)N(C)C12CN(Cc1ccccc1)C2=O (single isomer, unassigned) [DN, 2-benzyl-7-hydroxy-5,8-dimethyl-2,5-diazaspiro[3.4]octane-1,6-dione] |  |  |  |  | < 1 |  | − | 
